From patent US11111247B2, “Pyrazolopyrimidine compounds and uses thereof” (Incyte Corporation, priority 2018, dated 2021)
Read-outs that look alike come from different tables or passages of the source.

Assays:
FGFR2 (UP) = FGFR2 (UP) (Homo sapiens (Human), UniProt P21802); test: FGFR Enzymatic Assay, FGFR2 un-phosphorylated
Method: The inhibitor potency of the exemplified compounds was determined in an enzyme discontinuous assay that measures peptide phosphorylation using FRET measurements to detect product formation. Inhibitors were serially diluted in DMSO and a volume of 0.2 μL was transferred to the wells of a 384-well plate. For the isoforms of FGFR (−1, −2, −3 wild-type and mutant isoforms, −4) including phosphorylated (P) and un-phosphorylated (UP) proteins, a 5 μL/well volume of enzyme diluted in assay buffer (50 mM HEPES, 10 mM MgCl2, 1 mM EGTA, 0.01% Tween-20, 5 mM DTT, pH 7.5) was added to the plate and pre-incubated with inhibitor for 5 to 15 minutes at ambient temperature. Appropriate controls (enzyme blank and enzyme with no inhibitor) were included on the plate. The reaction was initiated by the addition of a 5 μL/well volume containing both biotinylated [sequence] […] The plate was allowed to equilibrate for −10 minutes at ambient temperature before scanning on a PheraStar plate reader (BMG Labtech) instrument.
Either GraphPad prism or XLfit was used to analyze the data. The IC50 values were derived by fitting the data to a four parameter logistic equation producing a sigmoidal dose-response curve with a variable Hill coefficient. Prism equation: Y=Bottom+(Top−Bottom)/(1+10^((LogIC50−X)*Hill slope)); XLfit equation: Y=(A+((B−A)/(1+((X/C)^D)))) where X is the logarithm of inhibitor concentration and Y is the response.

FGFR1 (UP) = FGFR1 (UP) (Homo sapiens (Human), UniProt P11362); test: FGFR Enzymatic Assay, FGFR1 un-phosphorylated
FGFR3 (UP) = FGFR3 (UP) (Homo sapiens (Human), UniProt P22607); test: FGFR Enzymatic Assay, FGFR3 un-phosphorylated
ALK2 = ALK2 (Homo sapiens (Human), UniProt Q04771); test: ALK2 Cellular Assay (phospho SMAD1 HTRF, BMP-7 stimulated HeLa cells); assay type: cell-based; conditions: read-out: ALK2 Cellular Assay PSMAD
Procedure, shortened: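 HeLa cells pre-treated with compound (highest final 3 μM) for 60 min at 37° C, then stimulated with 200 ng/ml BMP-7 for 30 min. Phospho-SMAD1 (S463/S465) quantified by HTRF after overnight room-temperature incubation.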

ALK2 (aa 147-end) = ALK2 (aa 147-end) (Homo sapiens (Human), UniProt Q04771); test: ALK2 HTRF Assay; assay type: biochemical
FGFR3 = FGFR3 (Homo sapiens, UniProt P22607); test: pFGFR3 Functional Cell HTRF Assay (BAF3-TEL-FGFR3 cells); assay type: cell-based; conditions: 2 hours
Method: To measure phosphorylated Fibroblast Growth Factor Receptor 1 and 3 (FGF1 and FGFR3), in house stable cell lines BAF3-TEL-FGFR1 or BAF3-TEL-FGFR3 were maintained in RPMI with 10% FBS and 1 μg/ml puromycin (Gibco/Life Technologies). […] The plates were gently shaken (100 rpm) for 2 minutes at room temperature to mix well and incubated for 2 hours in a single layer at 37° C., 5% CO2. 4 μl/well of 1/25 dilution of lysis buffer #3 (Cis Bio) was added with standard Protease inhibitors and shaken at 200 rpm at room temperature for 20 minutes. 4 μl total of the Cis Bio Tb-pFGFR Ab (10 ng) and d2-FGFR3 (1 ng) together were added to the lysate and mixed well. Plates were sealed and incubated at room temperature overnight in the dark. […] IC50 determination was performed by fitting the curve of inhibitor percent inhibition versus the log of the inhibitor concentration using the GraphPad Prism 5.0 software.

FGFR2 (P) = FGFR2 (P) (Homo sapiens (Human), UniProt P21802); test: FGFR Enzymatic Assay, FGFR2 phosphorylated; conditions: phosphorylated enzyme, ATP near or below Km
RT112 cells = test: Luminescent Viability Assay (LVA, FGFR3); assay type: cell-based; conditions: Homo sapiens, RT-112, 72 h, 3 days, CellTiter-Glo
Method: RT112 cells were purchased from ATCC (Manassas, Va.) and maintained in RPMI, 10% FBS (Gibco/Life Technologies). To measure the effect of test compounds on the viability of cells, the cells were plated with RPMI 10% FBS (5×10^3 cells/well/in 50 μL) into black 96-well Greiner polystyrene in the presence or absence of 50 μl of a concentration range of test compounds. After 3 days, 100 μl of CellTiter-Glo Reagent (Promega) was added. Luminescence was read with a TopCount (PerkinElmer). IC50 determination was performed by fitting the curve of percent inhibition versus the log of the inhibitor concentration using the GraphPad Prism 5.0 software.

[1] = HeLa cells, 200 ng/ml BMP-7, Phospho SMAD1 (S463/S465) HTRF
[2] = read-out: ALK2 3 μM IC50, 3 uM ATP
[3] = read-out: ALK2 100 μM IC50, 100 uM ATP
[4] = read-out: ALK2 1 mM IC50, 1 mM ATP
[5] = read-out: FGFR2 (UP) IC50, un-phosphorylated enzyme, ATP near or below Km
[6] = read-out: FGFR1 (UP) IC50, un-phosphorylated enzyme, ATP near or below Km
[7] = read-out: FGFR3 (UP) IC50, un-phosphorylated enzyme, ATP near or below Km

Chain of FGFR2 (P) (P21802 22-821): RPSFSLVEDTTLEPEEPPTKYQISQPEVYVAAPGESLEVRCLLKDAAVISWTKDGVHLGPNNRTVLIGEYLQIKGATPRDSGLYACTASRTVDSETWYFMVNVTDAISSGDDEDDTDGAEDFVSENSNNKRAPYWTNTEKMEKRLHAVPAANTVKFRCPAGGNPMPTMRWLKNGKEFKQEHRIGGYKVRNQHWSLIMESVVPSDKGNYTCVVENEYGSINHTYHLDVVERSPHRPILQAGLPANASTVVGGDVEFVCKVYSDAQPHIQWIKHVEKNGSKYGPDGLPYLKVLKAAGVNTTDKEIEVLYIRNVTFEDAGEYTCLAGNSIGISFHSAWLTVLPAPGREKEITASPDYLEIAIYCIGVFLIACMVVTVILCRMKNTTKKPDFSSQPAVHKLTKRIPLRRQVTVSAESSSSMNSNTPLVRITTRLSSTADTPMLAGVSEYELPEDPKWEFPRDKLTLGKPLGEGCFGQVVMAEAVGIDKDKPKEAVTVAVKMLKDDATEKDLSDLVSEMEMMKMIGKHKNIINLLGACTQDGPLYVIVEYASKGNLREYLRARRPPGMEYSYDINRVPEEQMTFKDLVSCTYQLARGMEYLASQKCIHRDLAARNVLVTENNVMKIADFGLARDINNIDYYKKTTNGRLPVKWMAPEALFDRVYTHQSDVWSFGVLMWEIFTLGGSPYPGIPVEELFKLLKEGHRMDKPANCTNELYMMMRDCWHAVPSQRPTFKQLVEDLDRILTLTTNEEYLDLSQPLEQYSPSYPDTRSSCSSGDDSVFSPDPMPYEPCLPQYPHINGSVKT
Chain of FGFR2 (UP) (P21802 22-821): as above
Chain of FGFR1 (UP) (P11362 22-822): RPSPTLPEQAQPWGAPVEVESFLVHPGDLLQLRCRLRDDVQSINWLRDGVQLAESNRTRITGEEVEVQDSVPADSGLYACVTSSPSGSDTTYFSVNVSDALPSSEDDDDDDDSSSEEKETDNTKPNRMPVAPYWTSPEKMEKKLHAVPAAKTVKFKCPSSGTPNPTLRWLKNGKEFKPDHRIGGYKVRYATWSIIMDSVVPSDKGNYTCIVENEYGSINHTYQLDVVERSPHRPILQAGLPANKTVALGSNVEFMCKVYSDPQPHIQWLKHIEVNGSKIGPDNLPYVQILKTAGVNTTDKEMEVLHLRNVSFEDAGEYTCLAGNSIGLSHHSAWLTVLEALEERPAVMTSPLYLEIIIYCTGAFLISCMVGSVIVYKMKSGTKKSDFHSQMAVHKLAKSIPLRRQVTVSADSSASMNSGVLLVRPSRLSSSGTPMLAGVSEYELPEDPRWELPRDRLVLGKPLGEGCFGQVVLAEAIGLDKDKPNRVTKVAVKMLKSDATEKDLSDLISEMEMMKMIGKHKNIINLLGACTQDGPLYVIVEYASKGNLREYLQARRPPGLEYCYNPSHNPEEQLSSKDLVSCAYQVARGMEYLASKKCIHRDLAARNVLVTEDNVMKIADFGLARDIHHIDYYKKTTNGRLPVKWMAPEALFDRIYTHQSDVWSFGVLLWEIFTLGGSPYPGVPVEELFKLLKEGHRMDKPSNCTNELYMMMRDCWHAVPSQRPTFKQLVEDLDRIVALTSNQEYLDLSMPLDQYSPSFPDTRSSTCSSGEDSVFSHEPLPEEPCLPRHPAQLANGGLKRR
Chain of ALK2 (Q04771 21-509): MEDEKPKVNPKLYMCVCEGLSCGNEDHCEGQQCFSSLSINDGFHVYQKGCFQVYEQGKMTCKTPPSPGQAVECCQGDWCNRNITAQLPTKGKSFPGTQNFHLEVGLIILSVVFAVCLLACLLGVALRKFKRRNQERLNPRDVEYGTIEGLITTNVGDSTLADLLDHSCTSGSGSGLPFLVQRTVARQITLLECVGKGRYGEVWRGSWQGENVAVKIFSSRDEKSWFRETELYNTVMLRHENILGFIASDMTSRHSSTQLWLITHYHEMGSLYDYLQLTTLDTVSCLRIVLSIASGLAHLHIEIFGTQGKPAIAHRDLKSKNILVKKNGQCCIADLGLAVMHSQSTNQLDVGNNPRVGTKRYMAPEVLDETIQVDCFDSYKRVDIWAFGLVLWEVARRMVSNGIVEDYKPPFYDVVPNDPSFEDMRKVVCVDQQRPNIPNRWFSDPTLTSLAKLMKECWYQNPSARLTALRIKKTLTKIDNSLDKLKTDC
Chain of FGFR3 (UP) (P22607 23-806): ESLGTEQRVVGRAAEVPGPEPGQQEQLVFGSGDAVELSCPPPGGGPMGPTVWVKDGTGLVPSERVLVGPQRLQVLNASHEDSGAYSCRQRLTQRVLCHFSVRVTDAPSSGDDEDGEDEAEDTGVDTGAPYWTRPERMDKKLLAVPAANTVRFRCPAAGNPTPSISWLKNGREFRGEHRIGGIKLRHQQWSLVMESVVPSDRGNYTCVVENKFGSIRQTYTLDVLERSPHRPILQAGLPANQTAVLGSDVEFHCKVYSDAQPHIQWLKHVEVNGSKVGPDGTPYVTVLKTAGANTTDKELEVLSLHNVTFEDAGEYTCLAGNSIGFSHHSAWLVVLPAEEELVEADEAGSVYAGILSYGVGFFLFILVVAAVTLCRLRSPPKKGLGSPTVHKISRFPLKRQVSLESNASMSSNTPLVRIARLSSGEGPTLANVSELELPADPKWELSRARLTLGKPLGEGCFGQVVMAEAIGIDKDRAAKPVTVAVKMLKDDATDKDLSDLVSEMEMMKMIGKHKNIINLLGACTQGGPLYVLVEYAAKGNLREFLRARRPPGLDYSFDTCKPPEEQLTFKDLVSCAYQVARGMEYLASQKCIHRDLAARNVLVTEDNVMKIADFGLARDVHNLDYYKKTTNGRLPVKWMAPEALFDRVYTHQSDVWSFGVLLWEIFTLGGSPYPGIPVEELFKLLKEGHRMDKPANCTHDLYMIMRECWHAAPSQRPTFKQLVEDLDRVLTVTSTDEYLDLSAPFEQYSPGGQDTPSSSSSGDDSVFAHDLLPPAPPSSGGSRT
Chain of FGFR3 (P22607 23-806 limits assumed): as the sequence (P22607 23-806) above
Chain of ALK2 (aa 147-end) (Q04771 147-509): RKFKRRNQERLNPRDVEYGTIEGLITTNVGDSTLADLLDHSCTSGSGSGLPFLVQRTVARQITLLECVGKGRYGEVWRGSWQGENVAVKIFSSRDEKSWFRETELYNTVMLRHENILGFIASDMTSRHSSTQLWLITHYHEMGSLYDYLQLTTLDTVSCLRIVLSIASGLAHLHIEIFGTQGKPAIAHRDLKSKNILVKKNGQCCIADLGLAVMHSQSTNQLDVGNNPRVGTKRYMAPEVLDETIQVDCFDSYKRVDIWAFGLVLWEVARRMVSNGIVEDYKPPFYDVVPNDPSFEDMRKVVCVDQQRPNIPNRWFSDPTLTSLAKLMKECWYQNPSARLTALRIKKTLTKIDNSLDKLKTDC

Row | SMILES | IC50 (FGFR2 (UP)) | IC50 (FGFR1 (UP)) | IC50 (FGFR3 (UP)) | IC50 (ALK2; [1]) | IC50 (ALK2 (aa 147-end); [2]) | IC50 (ALK2 (aa 147-end); [3]) | IC50 (ALK2 (aa 147-end); [4]) | IC50 (ALK2) | IC50 (ALK2 (aa 147-end); ALK2 1 mM IC50, 1 mM ATP) | IC50 (FGFR2 (UP); [5]) | IC50 (FGFR1 (UP); [6]) | IC50 (FGFR3 (UP); [7]) | IC50 (FGFR3) | IC50 (FGFR2 (P); read-out: FGFR2 (P) IC50) | IC50 (ALK2 (aa 147-end); ALK2 3 μM IC50, 3 uM ATP) | IC50 (ALK2 (aa 147-end); ALK2 100 μM IC50, 100 uM ATP) | IC50 (RT112 cells) | IC50 (FGFR2 (P); FGFR2 (P) IC50 (nM))
1 | C[C@@H]1CN(c2ccc(-c3n[nH]c4cnc(N5[C@H](C)CN(C(=O)OCCF)C[C@@H]5C)nc34)cn2)CCN1 [Example 12, 2-Fluoroethyl (3R,5S)-3,5-dimethyl-4-(3-(6-((R)-3-methylpiperazin-1-yl)pyridin-3-yl)-1H-pyrazolo[4,3-d]pyrimidin-5-yl)piperazine-1-carboxylate] | 0.1 to 0.5 µM | 0.5 to 2 µM | 0.1 to 0.5 µM | < 0.1 µM | < 0.1 µM | < 0.1 µM | < 0.1 µM |  |  |  |  |  |  |  |  |  |  | 
2 | C[C@@H]1CN(c2ccc(-c3n[nH]c4cnc(N5[C@@H]6CC[C@H]5CN(C(=O)C5CC5)C6)nc34)cn2)CCN1 [Example 13, Cyclopropyl((1R,5S)-8-(3-(6-((R)-3-methylpiperazin-1-yl)pyridin-3-yl)-1H-pyrazolo[4,3-d]pyrimidin-5-yl)-3,8-diazabicyclo[3.2.1]octan-3-yl)methanone] | 0.1 to 0.5 µM | 0.5 to 2 µM | 0.1 to 0.5 µM |  | < 0.1 µM | < 0.1 µM |  | 0.1 to 0.5 µM | 0.1 to 0.5 µM |  |  |  |  |  |  |  |  | 
3 | C[C@@H]1CN(c2ccc(-c3n[nH]c4cnc(N5[C@@H]6CC[C@H]5CN(C(=O)N5CCCC5)C6)nc34)cn2)CCN1 [Example 14, ((1R,5S)-8-(3-(6-((R)-3-Methylpiperazin-1-yl)pyridin-3-yl)-1H-pyrazolo[4,3-d]pyrimidin-5-yl)-3,8-diazabicyclo[3.2.1]octan-3-yl)(pyrrolidin-1-yl)methanone] |  |  |  |  | < 0.1 µM | < 0.1 µM |  | 0.1 to 0.5 µM | 0.1 to 0.5 µM | > 2 µM | > 2 µM | > 2 µM |  |  |  |  |  | 
4 | C[C@@H]1CCC[C@H](C)N1c1ncc2[nH]nc(-c3ccc(N4CCN(C)CC4)cc3)c2n1 [Example 16, 5-((2R,6S)-2,6-Dimethylpiperidin-1-yl)-3-(4-(4-methylpiperazin-1-yl)phenyl)-1H-pyrazolo[4,3-d]pyrimidine] | 0.1 to 0.5 µM | 0.1 to 0.5 µM | 0.1 to 0.5 µM | 0.5 to 2 µM | < 0.1 µM |  |  |  | 0.1 to 0.5 µM |  |  |  |  |  |  |  |  | 
5 | C[C@@H]1CN(c2ccc(-c3n[nH]c4cnc(N5CC6CCC5CN6C(=O)N5CCCC5)nc34)cn2)CCN1 (stereo partly drawn) [Example 20, (5-(3-(6-((R)-3-Methylpiperazin-1-yl)pyridin-3-yl)-1H-pyrazolo[4,3-d]pyrimidin-5-yl)-2,5-diazabicyclo[2.2.2]octan-2-yl)(pyrrolidin-1-yl)methanone] | 0.5 to 2 µM | 0.5 to 2 µM |  | 0.1 to 0.5 µM | < 0.1 µM | < 0.1 µM |  |  | 0.1 to 0.5 µM |  |  | > 2 µM |  |  |  |  |  | 
6 | C[C@@H]1CN(c2ccc(-c3n[nH]c4cnc(N5C[C@@H]6C[C@H]5CN6C(=O)N5CCCC5)nc34)cn2)CCN1 [Example 21, ((1S,4S)-5-(3-(6-((R)-3-Methylpiperazin-1-yl)pyridin-3-yl)-1H-pyrazolo[4,3-d]pyrimidin-5-yl)-2,5-diazabicyclo[2.2.1]heptan-2-yl)(pyrrolidin-1-yl)methanone] |  |  |  | 0.5 to 2 µM | < 0.1 µM | < 0.1 µM |  |  | 0.1 to 0.5 µM | > 2 µM | > 2 µM | > 2 µM |  |  |  |  |  | 
7 | COC(=O)N1C[C@@H](C)N(c2ncc3[nH]nc(-c4ccc(N5CCN(C)CC5)c(F)c4)c3n2)[C@@H](C)C1 [Example 23, Methyl (3R,5S)-4-(3-(3-fluoro-4-(4-methylpiperazin-1-yl)phenyl)-1H-pyrazolo[4,3-d]pyrimidin-5-yl)-3,5-dimethylpiperazine-1-carboxylate] | 0.1 to 0.5 µM | 0.1 to 0.5 µM | 0.1 to 0.5 µM | 0.1 to 0.5 µM | < 0.1 µM | < 0.1 µM |  |  | 0.1 to 0.5 µM |  |  |  |  |  |  |  |  | 
8 | COC(=O)N1C[C@@H](C)N(c2ncc3[nH]nc(-c4ccc(N5CCO[C@H](C)C5)nc4)c3n2)[C@@H](C)C1 [Example 32, Methyl (3R,5S)-3,5-dimethyl-4-(3-(6-((R)-2-methylmorpholino)pyridin-3-yl)-1H-pyrazolo[4,3-d]pyrimidin-5-yl)piperazine-1-carboxylate] | 0.5 to 2 µM |  | 0.1 to 0.5 µM | 0.1 to 0.5 µM | < 0.1 µM | < 0.1 µM |  |  | 0.1 to 0.5 µM |  | > 2 µM |  |  |  |  |  |  | 
9 | COC(=O)N1C[C@@H](C)N(c2ncc3[nH]nc(-c4ccc(N5CCN(C)[C@H](C)C5)nc4)c3n2)[C@@H](C)C1 [Example 33, Methyl (3R,5S)-4-(3-(6-((R)-3,4-dimethylpiperazin-1-yl)pyridin-3-yl)-1H-pyrazolo[4,3-d]pyrimidin-5-yl)-3,5-dimethylpiperazine-1-carboxylate] | 0.1 to 0.5 µM | 0.1 to 0.5 µM |  | < 0.1 µM | < 0.1 µM | < 0.1 µM | < 0.1 µM |  |  |  |  | < 0.1 µM |  |  |  |  |  | 
10 | CCn1cc(-c2n[nH]c3cnc(N4C5CCC4C(=O)N(C)C5)nc23)cn1 (stereo not drawn) [Example 61, 8-(3-(1-Ethyl-1H-pyrazol-4-yl)-1H-pyrazolo[4,3-d]pyrimidin-5-yl)-3-methyl-3,8-diazabicyclo[3.2.1]octan-2-one] |  | 0.1 to 0.5 µM |  |  |  |  |  |  |  |  |  | < 0.1 µM | < 0.1 µM | < 100 nM | 0.5 to 2 µM | 0.5 to 2 µM | 0.1 to 0.5 µM | 
11 | CC(C)n1cc(-c2n[nH]c3cnc(N4C5CCC4C(=O)N(C)C5)nc23)cn1 (stereo not drawn) [Example 62, 8-(3-(1-Isopropyl-1H-pyrazol-4-yl)-1H-pyrazolo[4,3-d]pyrimidin-5-yl)-3-methyl-3,8-diazabicyclo[3.2.1]octan-2-one] |  | 0.1 to 0.5 µM |  |  |  |  |  |  |  |  |  | < 0.1 µM | 0.1 to 0.5 µM | < 100 nM |  |  | 0.1 to 0.5 µM | 
12 | CN1CC2CCC(C1=O)N2c1ncc2[nH]nc(-c3cnn(CC(F)(F)F)c3)c2n1 (stereo not drawn) [Example 67, 3-Methyl-8-(3-(1-(2,2,2-trifluoroethyl)-1H-pyrazol-4-yl)-1H-pyrazolo[4,3-d]pyrimidin-5-yl)-3,8-diazabicyclo[3.2.1]octan-2-one] |  | 0.1 to 0.5 µM |  |  |  |  |  |  |  |  |  | < 0.1 µM | 0.1 to 0.5 µM |  |  |  |  | 100 to 500 nM
13 | CN(C)C(=O)c1ccc(-n2cc(-c3n[nH]c4cnc(N5C6CCC5C(=O)N(C)C6)nc34)cn2)cc1 (stereo not drawn) [Example 79, N,N-Dimethyl-4-(4-(5-(3-methyl-2-oxo-3,8-diazabicyclo[3.2.1]octan-8-yl)-1H-pyrazolo[4,3-d]pyrimidin-3-yl)-1H-pyrazol-1-yl)benzamide] |  |  |  |  |  |  |  |  |  | < 0.1 µM | < 0.1 µM | < 0.1 µM | < 0.1 µM | < 100 nM | 0.1 to 0.5 µM | 0.5 to 2 µM |  | 
14 | CNC(=O)c1ccc(-n2cc(-c3n[nH]c4cnc(N5C6CCC5C(=O)N(C)C6)nc34)cn2)cc1 (stereo not drawn) [Example 80, N-Methyl-4-(4-(5-(3-methyl-2-oxo-3,8-diazabicyclo[3.2.1]octan-8-yl)-1H-pyrazolo[4,3-d]pyrimidin-3-yl)-1H-pyrazol-1-yl)benzamide] |  |  |  |  |  |  |  |  |  | < 0.1 µM | < 0.1 µM | < 0.1 µM |  | < 100 nM |  |  | 0.5 to 2 µM | 
15 | CNC(=O)c1ccc(-n2cc(-c3n[nH]c4cnc(N5C6CCC5C(=O)N(C)C6)nc34)cn2)cn1 (stereo not drawn) [Example 82, N-Methyl-5-(4-(5-(3-methyl-2-oxo-3,8-diazabicyclo[3.2.1]octan-8-yl)-1H-pyrazolo[4,3-d]pyrimidin-3-yl)-1H-pyrazol-1-yl)picolinamide] |  |  |  |  |  |  |  |  |  |  | < 0.1 µM | < 0.1 µM | 0.1 to 0.5 µM | < 100 nM | 0.5 to 2 µM | 0.5 to 2 µM |  | 
